Measurements: ChEMBL document CHEMBL4715893, “Inhibitory effects of sesquiterpene lactones from the Indonesian marine sponge Lamellodysidea cf. herbacea on bone morphogenetic protein-induced osteoblastic differentiation” (Bioorg Med Chem Lett, 2021)

Experiments:
[1] = Inhibition of BMP-induced mouse C2C12 cells osteoblastic differentiation assessed as reduction in alkaline phosphatase activity; assay type: functional, cell-based
C2C12 = test: Cytotoxicity against mouse C2C12 cells assessed as reduction in cell viability by MTT assay; assay type: cell-based

Compound	IC50 [1] [µM]	IC50 (C2C12) [µM]
COC1C=C(CC[C@]2(C)C(C)=CCC[C@H]2C)C(=O)O1 (stereo partly specified)	20	> 38
C=C1C[C@@H]2C[C@@](C)(CCC3=CC(=O)O[C@@]32OC)[C@H]1C	51	> 76
CC1=CCC[C@@H](C)[C@]1(C)CCC1=CC(=O)OC1O (stereo partly specified)	4.8	> 40
